We go through six compounds from ChEMBL document CHEMBL3112482, “Nonclassical antifolates, part 5. Benzodiazepine analogs as a new class of DHFR inhibitors: synthesis, antitumor testing and molecular modeling study” (Eur J Med Chem, 2014).

The target in this assay is T1, Dihydrofolate reductase (Bos taurus, UniProt P00376).
T1 sequence (P00376 whole entry): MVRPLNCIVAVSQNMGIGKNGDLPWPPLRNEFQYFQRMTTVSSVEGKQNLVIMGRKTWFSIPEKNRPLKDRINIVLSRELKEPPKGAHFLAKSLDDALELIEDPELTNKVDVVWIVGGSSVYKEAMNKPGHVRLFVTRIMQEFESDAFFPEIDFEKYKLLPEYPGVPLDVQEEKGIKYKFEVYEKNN
As to the kind of experiment: Inhibition of bovine liver DHFR measured for every 1 min of 10 mins.

`Cc1cc2c(cc1C)NC(c1ccc(Br)cc1)=C1CCC/C(=C\c3ccc(Br)cc3)C1=N2`: the concentration for half-maximal inhibition (IC50) (commonly the concentration at which inhibition is half-maximal) was 21 µM. The same measure for `COc1ccc(/C=C2\CCCC3=C(c4ccc(OC)cc4)Nc4cc(C)c(C)cc4N=C32)cc1`: 0.1 µM; for `COc1ccc(/C=C2\CCCC3=C(c4ccc(OC)c(OC)c4)Nc4ccccc4N=C32)cc1OC`: 0.06 µM. In the case of `Cc1cc2c(cc1C)NC(c1ccc(Cl)cc1)=C1CCC/C(=C\c3ccc(Cl)cc3)C1=N2`, half-maximal inhibition (IC50) required 70 µM. The same measure for `Clc1ccc(/C=C2\CCCC3=C(c4ccc(Cl)cc4)Nc4cc(Cl)c(Cl)cc4N=C32)cc1`: 12 µM; for `COc1cc(/C=C2\CCCC3=C(c4cc(OC)c(OC)c(OC)c4)Nc4cc(C)c(C)cc4N=C32)cc(OC)c1OC`: 1 µM.
